Earlier results, collected in patent publication US11660346B2, “Engineered microparticles for macromolecule delivery” (University of Pittsburgh-Of the Commonwealth System of …, priority 2009, dated 2023).

Settings: parameter for polyanhydride disk prediction, FIG. 10

CCCCN1CCCCC1C(=O)Nc1c(C)cccc1C (centres unmarked) [bupivacaine]
CAmx (maximum solubility of agent) (aqueous): 2.184 mol/m^3
kdis (intrinsic dissolution rate constant): 0.046 mol/m^3 s
